Test results taken from patent US5643784A, “Indan derivatives” (H, Lundbeck A/S, priority 1990, dated 1997).

Tests used:
α1 adrenoceptors = experiment: Inhibition of 3H-prazosin binding to α1 adrenoceptors in rat brain in vitro; conditions: 3H-Prazosin 0.25 nM, rat brain, 25° C., 20 min; read-out: Receptor Binding; IC50 α1 3H-Praz
Method: INHIBITION OF ^3 H-PRAZOSIN BINDING TO α1 ADRENOCEPTORS IN RAT BRAIN IN VITRO
Method and results in Hyttel & Larsen, J. Neurochem, 44, 1615-1622, 1985; Skarsfeldt & Hyttel, Eur. J. Pharmacol. 125, 323-340, 1986.
(§1) Male Wistar (Mol:Wist) rats (125-200 g) are sacrificed and brain tissue is dissected and weighed. The tissue is homogenized (Ultra Turrax, 10 sec.) in 10 ml of ice-cold 50 nM Tris buffer pH 7,7 (at 25° C.). The homogenate is centrifuged twice at 20,000 g for 10 min. at 4° C. with rehomogenization of the pellet in 10 ml ice-cold buffer. The final pellet is homogenized in 400 vol (w/v) ice-cold buffer.
Incubation tubes kept on ice in triplicate receive 100 μl of drug solution in water (or water for total binding) and 4000μl of tissue suspension (final tissue content corresponds to 10 mg original tissue). The binding experiment is initiated by addition of 100 μl of ^3 H-Prazosin (final concentration 0.25 nM) and by placing the tubes in a 25° C. water bath. After incubation for 20 min. the samples are filtered under vacuum (0-50 mBar) through Whatman GF/F filters (25 mm). The tubes are rinsed with 5 ml ice-cold buffer which then are poured on the filters. Thereafter, the filters are washed with 5 ml of buffer. The filters are placed in counting vials and 4 ml of appropriate scintillation fluid (e.g. Picofluor™15) are added. After shaking for 1 h and storage 2 hrs in the dark the content of radioactivity is determined by liquid scintillation counting. Specific binding is obtained by subtracting the nonspecific binding in the presence of 1 μM of Prazosin.
(§2) For determination of the inhibition of binding five concentrations of drugs covering 3 decades are used.
The measured cpm are plotted against drug concentration on semilogarithmic paper and the best fitting S-shaped curve is drawn. The IC50 value is determined as the concentration at which the binding is 50% of the total binding in control samples minus the nonspecific binding in the presence of 1 μM of Prazosin.
^3 H-Prazosin=[furoyl-5-^3 H]-Prazosin from New England Nuclear, specific activity approximately 20 Ci/mmol.

dopamine D-2 receptors = target: T1, dopamine D-2 receptors (Rattus norvegicus, UniProt P61169); experiment: Inhibition of 3H-spiperone binding to dopamine D-2 receptors in rat corpus striatum in vitro; conditions: 3H-spiperone 0.5 nM, rat corpus striatum, 37° C., 10 min; read-out: Receptor Binding; IC50 DA D-2 3H-Spi
T1 construct: striatal tissue is dissected and weighed; from tissue; host or cells: corpus striatum of male Wistar rats, crude membranes
Method: INHIBITION OF ^3 H-SPIPERONE BINDING TO DOPAMINE D-2 RECEPTORS IN RAT CORPUS STRIATUM IN VITRO
By this method the inhibition by drugs of the binding of ^3 H-spiperone (0.5 nM) to dopamine D-2 receptors in membranes from rat corpus striatum is determined in vitro.
as §1, with “(Mol:Wistar)” for “(Mol:Wist)”, “(125-250” for “(125-200”, “striatal” for “brain”, “mM K-phosphate” for “nM Tris”, “7.4” for “7,7”, “1300” for “400”
Incubation tubes kept on ice in triplicate receive 100 μl of drug solution in water (or water for total binding) and 4000 μl of tissue suspension (final tissue content corresponds to 3.08 mg original tissue). The binding experimental is initiated by addition of 100 μl of ^3 H-spiperone (final concentration 0.5 nM) and by placing the tubes in a 37° C. water bath. After incubation for 10 min. the samples are filtered under vacuum (0-50 mBar) through Whatman GF/F filters (25 mm). The tubes are rinsed with 5 ml ice-cold buffer which are then poured on the filters. Thereafter, the filters are washed with 2×5 ml of buffer. The filters are placed in counting vials and 4 ml of appropriate scintillation fluid (e.g. Picofluor ™15) are added. After shaking for 1 h and storage 2 hrs in the dark the content of radioactivity is determined by liquid scintillation counting. Specific binding is obtained by subtracting the nonspecific binding in the presence of 10 μM of 6,7-ADTN.
as §2
^3 H-Spiperone=[phenyl-4-^3 H]-spiperone from Amersham International plc. England, specific activity 15-25 Ci/mmol.

5-HT2 receptors = target: T2, 5-HT2 receptors (Rattus norvegicus, UniProt P14842); experiment: Inhibition of 3H-ketanserin binding to 5-HT2 receptors in rat cortex in vitro; conditions: 3H-Ketanserin 0.5 nM, rat cortex, 37° C., 30 min; read-out: Receptor Binding; IC50 5-HT2 3H-Ket
T2 construct: cortical tissue is dissected and weighed; from tissue; host or cells: cortex of male Wistar rats, crude membranes
Method: Method in Hyttel, Pharmacology & Toxicology, 61, 126-129, 1987.
as §1, with “(125-250” for “(125-200”, “cortical” for “brain”, “mM tris” for “nM Tris”, “7.7” for “7,7”, “C.). The centrifuge glassware used in this step has been rinsed by sonication for 10 min. in ethanol.” for “C.).”, “500” for “400”
Incubation tubes kept on ice in triplicate receive 100 μl of drug solution in water (or water for total binding) and 2000 μl of tissue suspension (final tissue content corresponds to 4 mg original tissue). […] After incubation for 30 min. the samples are filtered under vacuum (0-50 mBar) through Whatman GF/F filters (25 mm). The tubes are rinsed with 5 ml ice-cold buffer which are then poured on the filters. Thereafter, the filters are washed with 2×5 ml of buffer. The filters are placed in counting vials and 4 ml of appropriate scintillation fluid (e.g. Picofluor™15) are added. After shaking for 1 h and storage 2 hrs in the dark the content of radioactivity is determined by liquid scintillation counting. Specific binding is obtained by subtracting the nonspecific binding in the presence of 1 μM mianserin.
as §2
The IC50 value is determined as the concentration at which the binding is 50% of the total binding in control samples minus the nonspecific binding in the presence of 1 μM mianserin.

T1 sequence (P61169 whole entry): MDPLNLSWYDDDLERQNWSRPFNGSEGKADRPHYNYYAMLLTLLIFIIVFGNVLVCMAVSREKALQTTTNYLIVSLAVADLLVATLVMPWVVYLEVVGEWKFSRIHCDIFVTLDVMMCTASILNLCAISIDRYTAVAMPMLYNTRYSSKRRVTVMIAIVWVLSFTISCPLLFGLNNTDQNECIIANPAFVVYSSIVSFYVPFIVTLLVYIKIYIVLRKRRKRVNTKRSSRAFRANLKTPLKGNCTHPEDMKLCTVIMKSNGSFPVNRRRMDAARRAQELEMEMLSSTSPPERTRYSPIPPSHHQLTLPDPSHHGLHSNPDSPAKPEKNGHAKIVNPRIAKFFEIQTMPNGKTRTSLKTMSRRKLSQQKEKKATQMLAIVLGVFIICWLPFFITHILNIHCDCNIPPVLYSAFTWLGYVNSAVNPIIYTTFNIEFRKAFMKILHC
T2 sequence (P14842 whole entry): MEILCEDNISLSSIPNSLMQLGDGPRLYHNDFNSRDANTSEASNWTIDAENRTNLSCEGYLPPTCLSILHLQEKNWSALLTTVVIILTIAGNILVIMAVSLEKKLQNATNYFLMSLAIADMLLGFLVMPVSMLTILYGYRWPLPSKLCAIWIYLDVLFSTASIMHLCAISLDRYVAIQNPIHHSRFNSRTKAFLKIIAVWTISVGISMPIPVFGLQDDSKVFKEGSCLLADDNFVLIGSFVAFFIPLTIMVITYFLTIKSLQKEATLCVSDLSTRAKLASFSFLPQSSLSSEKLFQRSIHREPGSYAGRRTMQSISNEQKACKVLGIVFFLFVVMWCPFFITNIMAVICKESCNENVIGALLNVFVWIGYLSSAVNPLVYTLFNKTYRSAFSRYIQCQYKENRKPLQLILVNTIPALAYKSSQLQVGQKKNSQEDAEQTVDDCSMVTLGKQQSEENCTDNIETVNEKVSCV

| SMILES | IC50 (α1 adrenoceptors) [nM] | IC50 (dopamine D-2 receptors) [nM] | IC50 (5-HT2 receptors) [nM] |
| --- | --- | --- | --- |
| CCN1CCN(CCN2CCN([C@@H]3C[C@@H](c4ccc(F)cc4)c4cc(Cl)ccc43)CC2)C1=O (relative stereo) [Compound 19, Trans-1-[2-[4-[5-chloro-3-(4-fluorophenyl)-2,3-dihydro-1H-inden-1-yl]piperazin-1-yl]ethyl]-3-ethyl-2-imidazolidinone] | 240 | 260 | 2.6 |
| CC(C)N1CCN(CCN2CCN([C@@H]3C[C@@H](c4ccccc4)c4cc(Cl)ccc43)CC2)C1=O (relative stereo) [Compound 20, Trans-1-[2-[4-[5-chloro-3-phenyl-2,3-dihydro-1H-inden-1-yl]piperazin-1-yl]ethyl]-3-isopropyl-2-imidazolidinone] | 510 | 750 | 9.9 |
| CC(C)N1CCN(CCN2CCN([C@@H]3C[C@@H](c4ccccc4F)c4cc(Cl)ccc43)CC2)C1=O (relative stereo) [Compound 21, Trans-1-[2-[4-[5-chloro-3-(2-fluorophenyl)-2,3-dihydro-1H-inden-1-yl]piperazin-1-yl]ethyl]-3-isopropyl-2-imidazolidinone] | 670 | 920 | 3.5 |
| CSc1ccc2c(c1)[C@H](c1ccc(F)cc1)C[C@H]2N1CCN(CCN2CCNC2=O)CC1 (relative stereo) [Compound 22, Trans-1-[2-[4-[3-(4-fluorophenyl)-5-(methylthio)-2,3-dihydro-1H-inden-1-yl]piperazin-1-yl]ethyl]-2-imidazolidinone] | 240 | 1100 | 3.5 |
| CSc1ccc2c(c1)[C@H](c1ccc(F)cc1)C[C@H]2N1CCN(CCN2CCN(C(C)C)C2=O)CC1 (relative stereo) [Compound 23, Trans-1-[2-[4-[3-(4-fluorophenyl)-5-(methylthio)-2,3-dihydro-1H-inden-1-yl]piperazin-1-yl]ethyl]-3-isopropyl-2-imidazolidinone] | 250 | 720 | 4 |
| CC(C)N1CCN(CCN2CCN([C@@H]3C[C@@H](c4ccc(F)cc4)c4cc(Br)ccc43)CC2)C1=O (relative stereo) [Compound 24, Trans-1-[2-[4-[5-bromo-3-(4-fluorophenyl)-2,3-dihydro-1H-inden-1-yl]piperazin-1-yl]ethyl]-3-isopropyl-2-imidazolidinone] | 270 | 240 | 6.4 |
| Cc1ccc([C@@H]2C[C@@H](N3CCN(CCN4CCN(C(C)C)C4=O)CC3)c3ccc(Cl)cc32)cc1 (relative stereo) [Compound 26, Trans-1-[2-[4-[5-chloro-3-(4-methylphenyl)-2,3-dihydro-1H-inden-1-yl]piperazin-1-yl]ethyl]-3-isopropyl-2-imidazolidinone] | 60 | 450 | 11 |
| CC(C)N1CCN(CCN2CCN([C@@H]3C[C@@H](c4ccc(Cl)cc4)c4cc(Cl)ccc43)CC2)C1=O (relative stereo) [Compound 27, Trans-1-[2-[4-[5-chloro-3-(4-chlorophenyl)-2,3-dihydro-1H-inden-1-yl]piperazin-1-yl]ethyl]-3-isopropyl-2-imidazolidinone] | 180 | 280 | 15 |
| CC(C)N1CCN(CCN2CCN([C@@H]3C[C@@H](c4cccc(F)c4)c4cc(Cl)ccc43)CC2)C1=O (relative stereo) [Compound 28, Trans-1-[2-[4-[5-chloro-3-(3-fluorophenyl)-2,3-dihydro-1H-inden-1-yl]piperazin-1-yl]ethyl]-3-isopropyl-2-imidazolidinone] | 970 | 490 | 26 |
| Fc1ccc([C@@H]2C[C@@H](N3CCN(CCN4CCNC4=S)CC3)c3ccc(Cl)cc32)cc1 (relative stereo) [Compound 31, Trans-1-[2-[4-[5-chloro-3-(4-fluorophenyl)-2,3-dihydro-1H-inden-1-yl]piperazin-1-yl]ethyl]-2-imidazolidinthione] | 52 | 67 | 1.5 |
| CC(C)N1CCN(CCN2CCN([C@@H]3C[C@@H](c4ccc(F)cc4)c4cc(Cl)ccc43)CC2)C1=S (relative stereo) [Compound 36, Trans-1-[2-[4-[5-chloro-3-(4-fluorophenyl)-2,3-dihydro-1-H-inden-1-yl]piperazin-1-yl]ethyl]-3-isopropyl-2-imidazolidinthione] | 69 | 260 | 3.6 |
| O=C1N(CCO)CCN1CCN1CCN([C@@H]2C[C@@H](c3ccc(F)cc3)c3cc(Cl)ccc32)CC1 (relative stereo) [Compound 37, Trans-1-[2-[4-[5-chloro-3-(4-fluorophenyl)-2,3-dihydro-1H-inden-1-yl]piperazin-1-yl]-ethyl]-3-(2-hydroxyethyl)-2-imidazolidinone] | 710 | 320 | 6.1 |
| Fc1ccc([C@@H]2C[C@@H](N3CCN(CCN4CCCC4=S)CC3)c3ccc(Cl)cc32)cc1 (relative stereo) [Compound 38] | 260 | 290 | 5.3 |
| Cc1ccc2c(c1)[C@H](N1CCN(CCN3CCNC3=O)CC1)C[C@H]2c1ccc(F)cc1 (relative stereo) [Compound 40, reference compound] | 12 | 43 | 0.71 |
| O=C1NCCN1CCN1CCN([C@H]2C[C@H](c3ccc(F)cc3)c3cc(C(F)(F)F)ccc32)CC1 (single isomer, unassigned) [(+)-1] | 330 | 290 | 2 |
| Fc1ccc([C@H]2C[C@H](N3CCNCC3)c3ccc(Cl)cc32)cc1 (single isomer, unassigned) [(-)-10] | 390 | 730 | 15 |
